# According to patent US20230278972A1, “SUBSTITUTED HALOALKYL SULFONANILIDE HERBICIDES” (FMC Corporation, priority 2020, published 2023):
# Experiments:
# Assay type in all cases: in vivo
# [1] = system: Ryegrass, Italian (Italian ryegrass, Lolium multiflorum); assay: Test A postemergence, Ryegrass, Italian; conditions: Postemergence; for Ryegrass, Italian plant response rating: 500 g ai/ha, visual injury vs untreated controls after approx. 10 days
# How it was run: (§1)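 Test chemicals, formulated in a non-phytotoxic solvent mixture with surfactant, were sprayed postemergence on plants 2 to 10 cm tall at the one- to two-leaf stage. Preemergence treatment was a directed soil spray onto freshly seeded pots. Both used a loam soil and sand blend.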
# kochia (Bassia scoparia) [2] = assay: Test A preemergence, kochia; conditions: Preemergence; for Plant response rating, Kochia: 0 to 100 scale (0 no effect, 100 complete control); for Kochia plant response rating: 125 g ai/ha, visual injury on 0 to 100 scale (0 no effect, 100 complete control), approximately 10 days
# How it was run: as §1
# [3] = system: ragweed (common ragweed, Ambrosia artemisiifolia); assay: Test A preemergence, ragweed; conditions: Preemergence; for Plant response rating, Ragweed: 0 to 100 scale (0 no effect, 100 complete control); for Ragweed plant response rating: 125 g ai/ha, visual injury on 0 to 100 scale (0 no effect, 100 complete control), approximately 10 days
# How it was run: as §1
# [4] = system: barnyardgrass (Echinochloa crus-galli); assay: Test A preemergence, barnyardgrass; conditions: Preemergence; for Plant response rating, Barnyardgrass: 0 to 100 scale (0 no effect, 100 complete control); for Barnyardgrass plant response rating: 125 g ai/ha, visual injury on 0 to 100 scale (0 no effect, 100 complete control), approximately 10 days
# How it was run: as §1
# [5] = system: Foxtail, Giant (giant foxtail, Setaria faberi); assay: Test A preemergence, Foxtail, Giant; conditions: Preemergence; for Plant response rating, Foxtail, Giant: 0 to 100 scale (0 no effect, 100 complete control); for Foxtail, Giant plant response rating: 125 g ai/ha, visual injury on 0 to 100 scale (0 no effect, 100 complete control), approximately 10 days
# How it was run: as §1
# [6] = system: ragweed (common ragweed, Ambrosia artemisiifolia); assay: Test A postemergence, ragweed; conditions: Postemergence; for Ragweed plant response rating: 500 g ai/ha, visual injury vs untreated controls after approx. 10 days
# How it was run: as §1
# [7] = system: Foxtail, Giant (giant foxtail, Setaria faberi); assay: Test A postemergence, Foxtail, Giant; conditions: Postemergence; for Foxtail, Giant plant response rating: 500 g ai/ha, visual injury vs untreated controls after approx. 10 days
# How it was run: as §1
# corn (Zea mays) = assay: Test A postemergence, corn; conditions: Postemergence; for Corn plant response rating: 500 g ai/ha, visual injury vs untreated controls after approx. 10 days
# How it was run: as §1
# [8] = system: pigweed (Amaranthus retroflexus); assay: Test A postemergence, pigweed; conditions: Postemergence; for Pigweed plant response rating: 500 g ai/ha, visual injury vs untreated controls after approx. 10 days
# How it was run: as §1
# [9] = system: wheat (Triticum aestivum); assay: Test A postemergence, wheat; conditions: Postemergence; for Wheat plant response rating: 500 g ai/ha, visual injury vs untreated controls after approx. 10 days
# How it was run: (§2)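 Preemergence: seeded pots of loam plus sand received a directed soil spray. Postemergence: seedlings at one to two leaves, 2 to 10 cm high, were oversprayed. Each compound was formulated in a non-phytotoxic solvent mix that included a surfactant.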
# [10] = system: pigweed (Amaranthus retroflexus); assay: Test A preemergence, pigweed; conditions: for Plant response rating, Pigweed: 0 to 100 scale (0 no effect, 100 complete control); for Pigweed plant response rating: 125 g ai/ha, visual injury on 0 to 100 scale (0 no effect, 100 complete control), approximately 10 days
# How it was run: as §2
# kochia (Bassia scoparia) [11] = assay: Test A postemergence, kochia; conditions: Postemergence; for Kochia plant response rating: 500 g ai/ha, visual injury vs untreated controls after approx. 10 days
# How it was run: as §1
# [12] = system: barnyardgrass (Echinochloa crus-galli); assay: Test A postemergence, barnyardgrass; conditions: Postemergence, 0 to 100 scale (0 no effect, 100 complete control); for Barnyardgrass plant response rating: 500 g ai/ha, visual injury vs untreated controls after approx. 10 days
# How it was run: as §2
# [13] = system: blackgrass (Alopecurus myosuroides); assay: Test A postemergence, blackgrass; conditions: Postemergence, 0 to 100 scale (0 no effect, 100 complete control); for Blackgrass plant response rating: 500 g ai/ha, visual injury vs untreated controls after approx. 10 days
# How it was run: as §1
# [14] = system: Ryegrass, Italian (Italian ryegrass, Lolium multiflorum); assay: Test A preemergence, Ryegrass, Italian; conditions: Preemergence; for Plant response rating, Ryegrass, Italian: 0 to 100 scale (0 no effect, 100 complete control); for Ryegrass, Italian plant response rating: 125 g ai/ha, visual injury on 0 to 100 scale (0 no effect, 100 complete control), approximately 10 days
# How it was run: as §1
# [15] = system: galium (catchweed bedstraw, Galium aparine); assay: Test A postemergence, galium; conditions: Postemergence; for Galium plant response rating: 500 g ai/ha, visual injury vs untreated controls after approx. 10 days
# How it was run: as §2
# [16] = 31 g ai/ha, visual injury on 0 to 100 scale (0 no effect, 100 complete control), approx. 10 days
# [17] = 125 g ai/ha, 0 to 100 scale (0 no effect, 100 complete control)
# [18] = 31 g ai/ha, visual injury, approx. 10 days
# [19] = 125 g ai/ha, visual injury approx. 10 days, 0 to 100 scale (0 no effect, 100 complete control)
# [20] = 125 g ai/ha, visual injury approx. 10 days
# [21] = 0 to 100 scale (0 no effect, 100 complete control)
Structure (SMILES),"Plant response rating, Ryegrass, Italian [1, 16]","Plant response rating, Kochia (kochia (Bassia scoparia) [2]; [18])",Kochia plant response rating (kochia (Bassia scoparia) [2]),"Plant response rating, Ragweed [3, 18]",Ragweed plant response rating [3],"Plant response rating, Barnyardgrass [4, 18]",Barnyardgrass plant response rating [4],"Plant response rating, Foxtail, Giant [5, 18]","Foxtail, Giant plant response rating [5]","Plant response rating, Foxtail, Giant [7, 19]","Plant response rating, Corn (corn (Zea mays); [19])",Pigweed plant response rating [10],"Plant response rating, Kochia (kochia (Bassia scoparia) [11]; [19])","Plant response rating, Barnyardgrass [12, 20]","Plant response rating, Blackgrass [13, 20]","Ryegrass, Italian plant response rating [14]","Plant response rating, Galium [15, 19]","Plant response rating, Ragweed [6, 19]","Plant response rating, Pigweed [8, 19]","Plant response rating, Wheat [9, 19]",also measured
CCC(=O)OCN(c1cc(C2=NOC3(CCCC3)C2)c(C)cc1C)S(=O)(=O)C(F)(F)F [Compound 144],0,0,30,0,30,20,100,90,100,30,30,50,10,20,0,90,60,,,,"Plant response rating, Ryegrass, Italian [1, 17]: 0; Plant response rating, Ragweed [6, 16]: 0; Plant response rating, Ragweed [6, 17]: 30; Plant response rating, Foxtail, Giant [7, 16]: 0; Plant response rating, Corn (corn (Zea mays); [16]): 0; Plant response rating, Pigweed [8, 16]: 20; Plant response rating, Pigweed [8, 17]: 40; Plant response rating, Wheat [9, 16]: 0; Plant response rating, Wheat [9, 17]: 60; Plant response rating, Pigweed [10, 18]: 70; Plant response rating, Kochia (kochia (Bassia scoparia) [11]; [16]): 10; Plant response rating, Barnyardgrass ([12]; 31 g ai/ha): 0; Plant response rating, Blackgrass ([13]; 31 g ai/ha): 0; Plant response rating, Ryegrass, Italian [14, 18]: 70; Plant response rating, Galium [15, 16]: 30"
Cc1cc(-c2cc(NS(=O)(=O)C(F)(F)F)c(C)cc2C)c(=O)n(C)n1 [Compound 62],,,70,,20,,100,,100,0,0,50,20,0,0,40,70,0,20,0,"Plant response rating, Ryegrass, Italian [1, 19]: 0; Ryegrass, Italian plant response rating [1, 21]: 20; Plant response rating, Kochia (kochia (Bassia scoparia) [2]; 500 g ai/ha): 90; Plant response rating, Ragweed ([3]; 500 g ai/ha): 80; Plant response rating, Barnyardgrass ([4]; 500 g ai/ha): 100; Plant response rating, Foxtail, Giant ([5]; 500 g ai/ha): 100; Ragweed plant response rating [6, 21]: 20; Foxtail, Giant plant response rating [7, 21]: 80; Corn plant response rating (corn (Zea mays); [21]): 0; Pigweed plant response rating [8, 21]: 40; Wheat plant response rating [9, 21]: 60; Plant response rating, Pigweed ([10]; 500 g ai/ha): 90; Kochia plant response rating (kochia (Bassia scoparia) [11]; [21]): 40; Barnyardgrass plant response rating [12]: 70; Blackgrass plant response rating [13]: 50; Plant response rating, Ryegrass, Italian ([14]; 500 g ai/ha): 100; Galium plant response rating [15, 21]: 80"
COc1cnn(-c2cc(NS(=O)(=O)C(F)(F)F)c(C)cc2C)c(=O)c1 [Compound 54],,,60,,50,,0,,0,0,0,40,60,0,0,0,60,80,40,0,"Plant response rating, Ryegrass, Italian [1, 19]: 40; Ryegrass, Italian plant response rating [1, 21]: 40; Plant response rating, Kochia (kochia (Bassia scoparia) [2]; 500 g ai/ha): 90; Plant response rating, Ragweed ([3]; 500 g ai/ha): 90; Plant response rating, Barnyardgrass ([4]; 500 g ai/ha): 0; Plant response rating, Foxtail, Giant ([5]; 500 g ai/ha): 10; Ragweed plant response rating [6, 21]: 90; Foxtail, Giant plant response rating [7, 21]: 0; Corn plant response rating (corn (Zea mays); [21]): 10; Pigweed plant response rating [8, 21]: 70; Wheat plant response rating [9, 21]: 0; Plant response rating, Pigweed ([10]; 500 g ai/ha): 90; Kochia plant response rating (kochia (Bassia scoparia) [11]; [21]): 80; Barnyardgrass plant response rating [12]: 10; Blackgrass plant response rating [13]: 0; Plant response rating, Ryegrass, Italian ([14]; 500 g ai/ha): 20; Galium plant response rating [15, 21]: 90"
Cc1cc(C)c(N(S(=O)(=O)C(F)(F)F)S(=O)(=O)C(F)(F)F)cc1C(=O)N1CCCC(F)C1 (stereo not shown) [Compound 118],0,0,0,50,100,0,90,80,100,30,0,100,40,90,10,80,90,80,90,40,"Plant response rating, Ragweed [6, 16]: 20; Plant response rating, Foxtail, Giant [7, 16]: 0; Plant response rating, Corn (corn (Zea mays); [16]): 0; Plant response rating, Pigweed [8, 16]: 30; Plant response rating, Wheat [9, 16]: 0; Plant response rating, Pigweed [10, 18]: 100; Plant response rating, Kochia (kochia (Bassia scoparia) [11]; [16]): 10; Plant response rating, Barnyardgrass ([12]; 31 g ai/ha): 10; Plant response rating, Blackgrass ([13]; 31 g ai/ha): 20; Plant response rating, Ryegrass, Italian [14, 18]: 40; Plant response rating, Galium [15, 16]: 40"
